The values below come from patent US9783530B2, “Factor Xla inhibitors” (Merck Sharp & Dohme Corp., priority 2014, dated 2017).

For orientation: IC50 means the point on the concentration scale where inhibition reaches its midpoint.

Experiment [1] deals with purified Human plasma kallikrein (Homo sapiens (Human), UniProt P03952). The experiment can be described thus: Kallikrein Assay. The class given is biochemical. Conditions: purified Human plasma kallikrein 0.5 nM, substrate Acetyl-K-P-R-AFC, pH 7.4; read-out: P. KLK IC50. As for the experimental part: (§1) The effectiveness of a compound of the present invention as an inhibitor of Kallikrein can be determined using a relevant purified serine protease, and an appropriate synthetic substrate. The rate of hydrolysis of the chromogenic or fluorogenic substrate by the relevant serine protease was measured both in the absence and presence of compounds of the present invention. Assays were conducted at room temperature or at 37° C. […] A decrease in the rate of fluorescence change in the presence of inhibitor is indicative of enzyme inhibition. Such methods are known to one skilled in the art. The results of this assay are expressed as the inhibitory constant, Ki.
Chain of purified Human plasma kallikrein (P03952 391-638): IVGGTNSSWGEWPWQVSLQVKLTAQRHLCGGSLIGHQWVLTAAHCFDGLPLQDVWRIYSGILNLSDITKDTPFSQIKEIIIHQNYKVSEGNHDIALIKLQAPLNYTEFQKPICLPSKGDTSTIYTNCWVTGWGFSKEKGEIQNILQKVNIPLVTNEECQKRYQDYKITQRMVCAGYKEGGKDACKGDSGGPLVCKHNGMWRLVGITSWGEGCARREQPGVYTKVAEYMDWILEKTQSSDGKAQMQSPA
Chain of purified Human plasma kallikrein (P03952 20-390 partner): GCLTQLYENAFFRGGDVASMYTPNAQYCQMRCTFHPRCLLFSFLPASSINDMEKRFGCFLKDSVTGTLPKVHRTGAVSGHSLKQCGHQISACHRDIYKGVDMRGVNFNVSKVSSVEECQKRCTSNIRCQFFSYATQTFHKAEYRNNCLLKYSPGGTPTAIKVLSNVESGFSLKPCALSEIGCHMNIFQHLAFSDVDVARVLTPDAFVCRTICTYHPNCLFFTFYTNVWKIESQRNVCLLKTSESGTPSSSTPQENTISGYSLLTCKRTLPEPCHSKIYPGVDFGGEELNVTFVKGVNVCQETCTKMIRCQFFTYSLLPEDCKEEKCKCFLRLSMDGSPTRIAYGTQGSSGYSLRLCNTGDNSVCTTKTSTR
Kallikrein determinations were made in 50 mM HEPES buffer at pH 7.4 containing 150 mM NaCl, 5 mM CaCl2, and 0.1% PEG 8000 (polyethylene glycol; Fisher Scientific). Determinations were made using purified Human plasma kallikrein at a final concentration of 0.5 nM (Enzyme Research Laboratories) and the synthetic substrate, Acetyl-K-P-R-AFC (Sigma # C6608) at a concentration of […].
Activity assays were performed by diluting a stock solution of substrate at least tenfold to a final concentration ≦0.2 Km into a solution containing enzyme or enzyme equilibrated with inhibitor. Times required to achieve equilibration between enzyme and inhibitor were determined in control experiments. The reactions were performed under linear progress curve conditions and fluorescence increase measured at 405 Ex/510 Em nm. Values were converted to percent inhibition of the control reaction (after subtracting 100% Inhibition value). IC50 was determined by inflection point from a four parameter logistic curve fit. Ki was calculated using the Cheng Prusoff equation, Ki=IC50/(1+([S]/Km)).

Experiment [2] concerns the target purified human Factor XIa (Homo sapiens (Human), UniProt P03951). As to the kind of experiment: Factor XIa Assay. It counts as biochemical. To be noted: purified human Factor XIa 40 pM, substrate Z-Gly-Pro-Arg-AFC, pH 7.4; read-out: FXIa IC50. As for the experimental part: as §1, with “Coagulation Factor XIa” for “Kallikrein”, “The results of this assay are expressed as the inhibitory constant, Ki.” left out
Factor XIa determinations were made in 50 mM HEPES buffer at pH 7.4 containing 150 mM NaCl, 5 mM CaCl2, and 0.1% PEG 8000 (polyethylene glycol; JT Baker or Fisher Scientific). Determinations were made using purified human Factor XIa at a final concentration of 40 pM (Sekisui Diagnostics) and he synthetic substrate, Z-Gly-Pro-Arg-AFC, TFA salt (Sigma #C0980) at a concentration of 100 µM.
Activity assays were performed by diluting a stock solution of substrate at least tenfold to a final concentration ≦0.1 Km into a solution containing enzyme or enzyme equilibrated with inhibitor. Times required to achieve equilibration between enzyme and inhibitor were determined in control experiments. Initial velocities of product formation in the absence (Vo) or presence of inhibitor (Vi) were measured. Assuming competitive inhibition, and that unity is negligible compared Km/[S], [I]/e, and [I]/e (where [S], [I], and e respectively represent the total concentrations, of substrate, inhibitor and enzyme), the equilibrium constant (Ki) for dissociation of the inhibitor from the enzyme can be obtained from the dependence of Vo/Vi on [I] shown in the following equation.

Chain of purified human Factor XIa (P03951 388-625): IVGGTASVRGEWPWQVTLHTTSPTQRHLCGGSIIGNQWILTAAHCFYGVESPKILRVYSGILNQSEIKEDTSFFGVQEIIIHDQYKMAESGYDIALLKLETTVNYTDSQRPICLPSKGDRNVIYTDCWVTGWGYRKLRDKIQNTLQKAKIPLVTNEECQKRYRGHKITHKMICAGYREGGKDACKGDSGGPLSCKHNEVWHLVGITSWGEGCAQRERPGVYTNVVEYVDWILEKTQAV
Chain of purified human Factor XIa (P03951 19-387 partner): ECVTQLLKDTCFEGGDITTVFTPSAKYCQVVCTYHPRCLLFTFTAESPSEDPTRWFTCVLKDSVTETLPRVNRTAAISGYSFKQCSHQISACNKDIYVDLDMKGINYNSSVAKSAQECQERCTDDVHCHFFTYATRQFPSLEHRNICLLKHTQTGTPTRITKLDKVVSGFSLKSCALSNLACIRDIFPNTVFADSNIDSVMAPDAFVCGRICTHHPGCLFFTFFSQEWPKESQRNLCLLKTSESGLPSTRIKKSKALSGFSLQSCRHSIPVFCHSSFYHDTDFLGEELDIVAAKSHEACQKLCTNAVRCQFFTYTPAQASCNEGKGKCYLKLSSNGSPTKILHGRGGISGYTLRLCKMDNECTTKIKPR

`O=C(O)c1ccc(NC(=O)C(CC2CC2)c2ccc(-c3cc(Cl)ccc3-n3ccnn3)c[n+]2[O-])cc1` (single isomer, unassigned) [Example 54, 4-[(2-{5-[5-chloro-2-(1H-1,2,3-triazol-1-yl)phenyl]-1-oxidopyridin-2-yl}-3-cyclopropylpropanoyl)amino]benzoic acid]: the IC50 was 678 nM in experiment [1] and 4.7 nM in experiment [2].
Taken in the same sequence, the figures for `O=C(O)c1ccc(NC(=O)[C@@H](Cc2ccccc2)c2ccc(-c3cc(Cl)ccc3-n3cnnn3)c[n+]2[O-])cc1` [Example 1, 4-{[(2S)-2-{5-[5-chloro-2-(1H-tetrazol-1-yl)phenyl]-1-oxidopyridin-2-yl}-3-phenylpropanoyl]amino} benzoic acid] were 83.1 nM and 32.7 nM.
In the case of `O=C(O)c1ccc(NC(=O)[C@H](Cc2ccccc2)c2ccc(-c3cc(Cl)ccc3-n3cnnn3)c[n+]2[O-])cc1` [Example 2, 4-{[(2R)-2-{5-[5-chloro-2-(1H-tetrazol-1-yl)phenyl]-1-oxidopyridin-2-yl}-3-phenylpropanoyl]amino} benzoic acid], the IC50 in experiment [1] was found to be 1.2 nM; in experiment [2], 0.16 nM.
With `O=C(O)c1ccc(NC(=O)[C@H](Cc2ccccc2)c2ccc(-c3c(F)ccc(Cl)c3F)c[n+]2[O-])cc1` [Example 4, 4-({(2R)-2-[5-(3-chloro-2,6-difluorophenyl)-1-oxidopyridin-2-yl]-3-phenylpropanoyl}amino) benzoic acid], the concentration for half-maximal inhibition (IC50) is 18.2 nM in experiment [1] and 3.63 nM in experiment [2].
In the case of `O=C(O)c1ccc(NC(=O)[C@@H](Cc2ccc(F)cc2)c2ccc(-c3cc(Cl)ccc3-n3cnnn3)c[n+]2[O-])cc1` [Example 7, 4-{[(2S)-2-{5-[5-chloro-2-(1H-tetrazol-1-yl)phenyl]-1-oxidopyridin-2-yl}-3-(4-fluorophenyl)propanoyl]amino}benzoic acid], the values for the IC50 in experiment [1] and in experiment [2] were 67.1 nM and 14.2 nM, respectively.
With `O=C(O)c1ccc(NC(=O)[C@H](Cc2ccc(F)cc2)c2ccc(-c3cc(Cl)ccc3-n3cnnn3)c[n+]2[O-])cc1` [Example 8, 4-{[(2R)-2-{5-[5-chloro-2-(1H-tetrazol-1-yl)phenyl]-1-oxidopyridin-2-yl}-3-(4-fluorophenyl)propanoyl]amino}benzoic acid], the results for the IC50 in experiment [1] and in experiment [2] were 3.4 nM and 0.26 nM, respectively.
In the case of `O=C(Cc1ccc(-c2c(F)ccc(Cl)c2F)c[n+]1[O-])Nc1ccc(C(=O)O)cc1` [Example 9, 4-({[5-(3-chloro-2,6-difluorophenyl)-1-oxidopyridin-2-yl]acetyl}amino) benzoic acid], the IC50 in experiment [1] is 1570 nM; in experiment [2], 89.2 nM.
For `O=C(Cc1ccc(-c2cc(Cl)ccc2-n2cnnn2)c[n+]1[O-])Nc1ccc(C(=O)O)cc1` [Example 14, 4-[({5-[5-chloro-2-(1H-tetrazol-1-yl)phenyl]-1-oxidopyridin-2-yl}acetyl)amino] benzoic acid], the IC50 in experiment [1] is 1350 nM; in experiment [2], 18.5 nM.
Taken in the same sequence, the figures for `Cc1cc(C(Cc2ccccc2)C(=O)Nc2ccc(C(=O)O)cc2)[n+]([O-])cc1-c1c(F)ccc(Cl)c1F` (stereo not shown) [Example 25, 2-(1-((4-carboxyphenyl)amino)-1-oxo-3-phenylpropan-2-yl)-5-(3-chloro-2,6-difluorophenyl)-4-methylpyridine 1-oxide] were 42.3 nM and 8.32 nM.
Taken in the same sequence, the figures for `O=C(O)c1ccc(NC(=O)[C@H](CC2CC2)c2ccc(-c3cc(Cl)ccc3-n3cnnn3)c[n+]2[O-])cc1` [Example 27, 4-{[(2R)-2-{5-[5-chloro-2-(1H-tetrazol-1-yl)phenyl]-1-oxidopyridin-2-yl}-3-cyclopropylpropanoyl]amino}benzoic acid] were 23.8 nM and 0.14 nM.
For the compound `O=C(O)c1ccc(NC(=O)[C@@H](CC2CC2)c2ccc(-c3cc(Cl)ccc3-n3cnnn3)c[n+]2[O-])cc1` [Example 28, 4-{[(2S)-2-{5-[5-chloro-2-(1H-tetrazol-1-yl)phenyl]-1-oxidopyridin-2-yl}-3-cyclopropylpropanoyl]amino}benzoic acid], the figures for the IC50 in experiment [1] and in experiment [2] were 5820 nM and 37 nM, respectively.
